Measured values taken from patent US10945971B2, “Sphingosine kinase type 1 inhibitors and uses thereof” (Enzo Therapeutics, Inc., priority 2008, dated 2021).

Key:
U373 cells = test: Modulation of SK1-I lethality by signaling inhibitors, U373 cells; format: cell-based, human; details: U373, combined with SK1-I
Description: (§1) Cells were plated at 10,000 cells/well in 48-well plates and allowed to attach for 24 h. Cell proliferation was measured at the indicated times with WST-1 and absorbance was measured in a plate reader at 450 nm with background subtraction at 630 nm. Cell death was detected by trypan blue exclusion assays in which the percent of blue dye incorporating cells were determined using a light microscope and a hemacytometer as described (Yacoub et al. Mol Cancer Ther 7:314-329, 2008). Apoptotic cell death was measured by staining cell nuclei with the Hoechst dye bisbenzimide and apoptotic cells were identified by condensed, fragmented nuclear regions as described previously (Sankala et al. Cancer Res 67:10466-10474, 2007). A minimum of 300 cells was scored.

LN229 cells = format: cell-based; details: LN229, combined with SK1-I
Description: as §1

SMILES | effect on SK1-I lethality (U373 cells) | effect on SK1-I lethality (LN229 cells)
Oc1ccc(-c2nc(-c3ccncc3)c(-c3ccc(F)cc3)[nH]2)cc1 [SB202190] | enhanced | enhanced
N#CC(=C(/N)Sc1ccccc1N)/C(C#N)=C(\N)Sc1ccccc1N [U0126] | enhanced | enhanced
